As a reminder, the AUC(0-t) is exposure summed from dosing to a finite time, without extrapolation to infinity. As a reminder, the Cmax is the peak of the concentration-time curve. For orientation: Tmax means the time at which the peak concentration occurs.

The values below come from patent publication US12378210B2, “Pharmaceutical composition comprising tizoxanide and pharmaceutical use thereof” (BEIJING JUNKE HUAYUAN MED TECH CO., LTD., priority 2020, dated 2025).

In data set [1] the test system is influenza A virus mouse lung adaptive strain A/PR/8/34. It is filed as in vivo, Kunming mice.
On the set-up of data set [2]: species or system SD rats. The conditions noted are these: male, SD, rat, in vivo, po. As for the experimental part: 34.75 mg of nitazoxanide was added to 10 mL of 0.5% sodium carboxymethylcellulose solution, and the mixture was mixing homogeneously for later use; 41.67 mg of tizoxanide choline salt of formula (I) prepared in Example 2 was added to 10 mL of 0.5% sodium carboxymethylcellulose solution, and the mixture was mixed homogeneously for later use; 30 mg of tizoxanide was added to 5 mL of 0.5% sodium carboxymethylcellulose solution, followed by addition of 40% aqueous choline hydroxide solution, and the mixture was mixed homogeneously, and then added with 0.5% sodium carboxymethyl cellulose solution to a final volume of 10 mL to obtain a mixture of tizoxanide and choline for later use. […] Provided were male SD rats weighing 180 g to 220 g, 3 rats each group; all animals were fasted for 12 h prior to administration. The rats were separately administered intragastrically with the solution of the nitazoxanide, the solution of the tizoxanide choline salt of formula (I) or the mixture of tizoxanide and choline described above at a dose of 10 mL/kg each. […] The collected blood was added with sodium heparin for anticoagulation, followed by centrifugation to separate plasma, and the plasma was storing at −80° C. for determination. The content of tizoxanide in plasma was determined by LC-MS/MS (instrument: LC-MS/MS-19, TQ5500 Triple quad); internal Standard (IS) was tolbutamide; mass spectrum conditions: an electrospray ion source and a negative ion multiple reaction detection (Tizoxanide: […] ACQUITY UPLC CORTECS T3, 2.7 μm (2.1×100 mm); column temperature was 40° C.; flow rate was 0.6 mL/min. The pharmacokinetic parameters were calculated by utilizing WinNonlin according to the plasma concentration data at different time points. The results are shown in Table 1: […]

A further data set relates to DHBV. As to the kind of experiment: Evaluation of in vivo anti-hepatitis B virus effect (serum DHBV DNA, dot-blot hybridization). Also on record: species or system sheld ducks (Tadorna). The settings on record: intragastric once daily. As for the experimental part:
The sheld ducks (Tadorna) with vertical transmission infection and positive DHBV DNA were randomly grouped, 8 sheld ducks each group. […] Blood was collected intravenously prior to administration (T0) and 7 days (T7), 14 days (T14), 21 days (T21) and 28 days ([…]) after administration, and the serum was separated and frozen at -70° C. for determination. Determination of DHBV DNA content in serum by using dot-blot molecular hybridization was as follows: the duck serum described above was taken, spots were simultaneously formed on detection films for each batch, the change of the DHBV DNA level in the duck serum was determined, the DHBV DNA probe was labeled by ^32P according to the method of the instruction of the nick translation kit, and a duck serum dot-blot experiment was performed.

The conditions of data set [3]: in vivo, po; cited from earlier work.
The mark [4] stands for this setting: 200 mg/kg active ingredient basis, T0 (prior to administration).
Setting [5] is: 200 mg/kg active ingredient basis, T7 (7 days).
Setting [6] is: 200 mg/kg active ingredient basis, T14 (14 days).
The mark [7] stands for this setting: 200 mg/kg active ingredient basis, T21 (21 days).
Where [8] appears, read: 200 mg/kg active ingredient basis, T28 (28 days).

“And” between values parts separate entries of the source, which are not always exact repeats. Identical values can stand only once. Counter-ions that a name gives are not always drawn. Like-named read-outs stand apart in the source and are kept apart here.

On to `CC(=O)Oc1ccccc1C(=O)Nc1ncc([N+](=O)[O-])s1` [Nitazoxanide, o-N-(5-nitrothiazol-2-yl)carbamoyl-phenol-acetate, reference compound], for which the Survival rates was 2/10 in data set [1] (50 mg/kg active ingredient basis, intragastric 2 times daily for 5 days, […], observed 14 days) and 7/10 in data set [1] (100 mg/kg active ingredient basis, intragastric 2 times daily for 5 days, […], observed 14 days). The “AUC(0-t)” value in data set [2] came to 1325.50 ng·h/mL. Besides, the “AUC(0-∞)” value in data set [2] was found to be 1327.91 ng·h/mL. Moreover, the Cmax in data set [2] is reported as 380.55 ng/mL. In data set [2], this compound yielded a T1/2 of 0.65 h. Also, in data set [2], the Tmax worked out at 2.00 h. Moreover, the OD490 value with DHBV (setting [4]) is reported as 1.67 ± 0.11; with DHBV (setting [5]), 1.37 ± 0.27; in the data set on DHBV (setting [6]), 1.19 ± 0.51; with DHBV (setting [7]) it was 0.72 ± 0.38**ΔΔ; in the data set on DHBV (setting [8]) it was 0.72 ± 0.48**ΔΔ. The “original form of nitazoxanide in blood” value in data set [3] is listed as “undetectable”.

On to `O=C(Nc1ncc([N+](=O)[O-])s1)c1ccccc1O` [Tizoxanide choline salt of formula (I), tizoxanide choline salt], for which, in data set [1] (mouse, in vivo), the Survival rates is 9/10 and 3/10. Also, the “AUC(0-t)” value in data set [2] came to 2070.01 ng·h/mL. Further, the “AUC(0-∞)” value in data set [2] was 2280.30 ng·h/mL. In data set [2], the Cmax is on record as 837.16 ng/mL. Also, in data set [2], the T1/2 stood at 2.53 h. For the same compound, in data set [2], the Tmax came to 0.25 h. For the same compound, the OD490 value in the data set with DHBV (100 mg/kg active ingredient basis, T0 (prior to administration)) was 1.47 ± 0.20; in the data set with DHBV (100 mg/kg active ingredient basis, T7 (7 days)), 0.43 ± 0.18**ΔΔ; with DHBV (100 mg/kg active ingredient basis, T14 (14 days)) it was 0.39 ± 0.34**ΔΔ; with DHBV (100 mg/kg active ingredient basis, T21 (21 days)), 0.34 ± 0.25**ΔΔ; with DHBV (100 mg/kg active ingredient basis, T28 (28 days)) it was 0.53 ± 0.37**ΔΔ; in the data set with DHBV (setting [4]), 0.96 ± 0.47. Also, the OD490 value is reported as 0.15 ± 0.08**ΔΔ in the data set with DHBV (setting [5]), 0.10 ± 0.05**ΔΔ in the data set on DHBV (setting [6]), 0.07 ± 0.04**ΔΔ with DHBV (setting [7]) and 0.27 ± 0.17**ΔΔ in the data set with DHBV (setting [8]).
